Tested on: HIV-1 cell line, CEMRF
Assay: Long term in vitro study, CEMRF cells, reverse transcriptase analysis
Assay type: cell-based
Design: Reverse transcriptase data: unit not given here
Description: A microtiter-based reveres transcriptase (RT) reaction is utilized (Buckheit et al (1991) AIDS Research and Human Retroviruses 7:295-302). Tritiated thymidine triphosphate (NEN)(TTP) is resuspended in distilled water at 5 Ci/ml. Poly rA and oligo dT are prepared as a stock solution which is kept at -20° C. The RT reaction buffer is prepared fresh on a daily basis and consists of 125 μl 1M EGTA, 125 μl water, 125 μl Triton X-100, 50 μl Tris (pH 7.4), 50 μl MDDT, and 40 μl 1M MgCl2. These three solutions are mixed together in a ratio of 1 part TTP, 2.5 parts poly rA:oligo dT, 2.5 parts reaction buffer and 4 parts distilled water. Ten microliters of this reaction mixture is placed in a round bottom microtiter place and 15 μl of virus containing supernatant is added and mixed. The plate is incubated at 37° C. and incubated for 60 minutes. Following reaction, the reaction volume is spotted onto filter mats, washed 6 times for 5 minutes each in a 5% sodium phosphate buffer, 2 times for 1 minute each in distilled water, 2 times for 1 minute each in 70% ethanol, and then dried. The dried filter mat is placed in a plastic sample bag, Betaplate scintillation fluid is added and the bag is heat sealed. Incorporated radioactivity is quantified utilizing a Wallac Microbeta scintillation counter.
Acute infection of most established human cell lines with HIV- I results in the eventual establishment of a constitutive virus-producing chronically infected cell line. The cells can be passaged for long periods of time in culture without loss of virus production. These cells may be utilized to evaluate the effects of anti-HIV compounds on syncytium formation or to evaluate the effects of anti-HIV compounds on levels of virus production from these cells. […] Each of the cells contains an integrated HIV genome or provirus. Chronically infected CEM, H9 and U937 cell lines have been prepared and cultured by Southern Research Institute, Frederick Md. and are available from them.
CEM-SS cells chronically infected with HIV isolate, for example SKI (CEM-SKI) are cultured in RPM1640 tissue culture medium supplemented with 10% fetal bovine serum and antibiotics. Selection is performed by culturing the cells in the presence of the compound to be tested in T25 flasks. CEM-SKI or other infected cells with no added drug are used as the control cells. Cells are allowed to grow to a density of approximately 1×10^6 cells/ml and are then passaged at a 1:10 dilution. After a period of time, usually one week intervals of drug treatment, cells are evaluated to determine if the inhibitory activity of the compound has been affected by treatment of the cells with either compounds. The drug concentration in the flask is then increased two-fold and the cells maintained as above.
The cell populations contain integrated copies of the HIV genome and constitutively produce HIV at relatively high levels or are latently infected and only produce virus after stimulation with phorbol esters, tumor necrosis factor or IL6(U1 and ACH2). Reductions in virus products were observed when quantifying supernatant reverse transcriptase activity,
Toxicity Values are measured by XTT and activity of the compound in the tests is measured by a Reverse Transcriptase analysis.
A long term in vitro study of 3-hexahydro-3-ethyl-1-methyl-2-oxo-1H-azepin-3-yl)phenyl ester of 4-chlorophenyl carbamic acid against an HIV-1 cell line, CEMRF, was conducted at three different levels. The results with CEMRF cells were reported at weekly intervals. CEMRF is a chronic HIV cell line.

Question: Which results are given for `CCC1(c2cccc(OC(=O)Nc3ccc(Cl)cc3)c2)CCCCN(C)C1=O` (stereo not shown) [(4-chlorophenyl)-carbamic acid, 3-(hexahydro-3-ethyl-1-methyl-2-oxo-1H-azepin-3-yl) 2 phenyl ester]?
Answer: Reverse transcriptase data (7 μg/ml, Day 4): 1942; Reverse transcriptase data (7 μg/ml, Day 11): 1537; Reverse transcriptase data (7 μg/ml, Day 18): 1683; Reverse transcriptase data (7 μg/ml, Day 25): 1624; Reverse transcriptase data (7 μg/ml, Day 32): 1286; Reverse transcriptase data (7 μg/ml, Day 39): 1368; Reverse transcriptase data (7 μg/ml, Day 46): 1588; Reverse transcriptase data (7 μg/ml, Day 53): 1482; Reverse transcriptase data (7 μg/ml, Day 60): 1381; Reverse transcriptase data (7 μg/ml, Day 67): 1231; Reverse transcriptase data (7 μg/ml, Day 71): 1321; Reverse transcriptase data (7 μg/ml, Day 74): 1528; Reverse transcriptase data (7 μg/ml, Day 88): 1454; Reverse transcriptase data (7 μg/ml, Day 95): 1168; Reverse transcriptase data (7 μg/ml, Day 102): 1463; Reverse transcriptase data (7 μg/ml, Day 109): 1440; Reverse transcriptase data (15 μg/ml, Day 4): 1402; Reverse transcriptase data (15 μg/ml, Day 11): 1402; Reverse transcriptase data (15 μg/ml, Day 18): 1281; Reverse transcriptase data (15 μg/ml, Day 25): 1582; Reverse transcriptase data (15 μg/ml, Day 32): 1140; Reverse transcriptase data (15 μg/ml, Day 39): 1028; Reverse transcriptase data (15 μg/ml, Day 46): 1056; Reverse transcriptase data (15 μg/ml, Day 53): 1160; Reverse transcriptase data (15 μg/ml, Day 60): 1056; Reverse transcriptase data (15 μg/ml, Day 67): 1002; Reverse transcriptase data (15 μg/ml, Day 71): 1108; Reverse transcriptase data (15 μg/ml, Day 74): 1201; Reverse transcriptase data (15 μg/ml, Day 88): 1068; Reverse transcriptase data (15 μg/ml, Day 95): 1004; Reverse transcriptase data (15 μg/ml, Day 102): 1165; Reverse transcriptase data (15 μg/ml, Day 109): 1265; Reverse transcriptase data (30 μg/ml, Day 4): 650; Reverse transcriptase data (30 μg/ml, Day 11): 463; Reverse transcriptase data (30 μg/ml, Day 18): 221; Reverse transcriptase data (30 μg/ml, Day 25): 643; Reverse transcriptase data (30 μg/ml, Day 32): 462; Reverse transcriptase data (30 μg/ml, Day 39): 221; Reverse transcriptase data (30 μg/ml, Day 46): 149; Reverse transcriptase data (30 μg/ml, Day 53): 281; Reverse transcriptase data (30 μg/ml, Day 60): 248; Reverse transcriptase data (30 μg/ml, Day 67): 147; Reverse transcriptase data (30 μg/ml, Day 71): 201; Reverse transcriptase data (30 μg/ml, Day 74): 161; Reverse transcriptase data (30 μg/ml, Day 88): 249; Reverse transcriptase data (30 μg/ml, Day 95): 176; Reverse transcriptase data (30 μg/ml, Day 102): 197; Reverse transcriptase data (30 μg/ml, Day 109): 370; Reverse transcriptase data, continued test (run through 222 days): data remained consistent

From patent publication US6225307A, “Viral treatment” (priority 2000, dated 2001)
